US20210379210A1, “RADIOLIGANDS FOR IMAGING THE LPA1 RECEPTOR” (BRISTOL-MYERS SQUIBB COMPANY, priority 2018, published 2021)
Where “and” joins values, the source holds several entries; their conditions need not be identical. Equal values may be shown once. Read-outs that look alike come from different tables or passages of the source.

What was measured:
[1] = Radio-metabolism, fraction intact post-injection; format: in vivo; details: at the 90 minute post-injection
LPA1 = LPA1 (Rattus norvegicus, UniProt P61794); experiment: In-vivo PET imaging, lung uptake in wild type and bleomycin treated rats; details: for Lung uptake (% ID/g) @ 60-90 min: baseline PET scan, listed as [^18F]-(1S,3S)-3-(6-(5-((((4-(fluoro)butyl)(methyl)carbamoyl)oxy)methyl)-1-meth))
Sequence of LPA1 (P61794 whole entry): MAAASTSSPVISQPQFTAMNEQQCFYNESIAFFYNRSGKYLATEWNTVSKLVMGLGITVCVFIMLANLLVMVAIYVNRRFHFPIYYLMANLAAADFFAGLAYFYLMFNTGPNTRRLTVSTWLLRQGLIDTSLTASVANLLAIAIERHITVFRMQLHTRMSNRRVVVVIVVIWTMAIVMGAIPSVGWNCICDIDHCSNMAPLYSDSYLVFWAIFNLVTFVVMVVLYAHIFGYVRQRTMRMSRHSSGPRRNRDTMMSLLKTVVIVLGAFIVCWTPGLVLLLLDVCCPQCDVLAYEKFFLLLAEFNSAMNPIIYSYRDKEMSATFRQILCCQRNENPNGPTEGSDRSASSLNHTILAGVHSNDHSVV
Procedure: (§1) [^18F]-(1S,3S)-3-(((6-(5-((((4-(fluoro)butyl)(methyl)carbamoyl)oxy)methyl)-1-methyl-1H-1,2,3-triazol-4-yl)-2-methylpyridin-3-yl)oxy)cyclohexane-1-carboxylic acid was tested to confirm its properties, specificity and targeting of the LPA1 receptor in aged-matched wild type (Sprague Dawley rat, Charles River Laboratory, PA) and bleomycin-induced pulmonary fibrosis rat models. The bleomycin-induced pulmonary fibrosis rat model was generated in anesthetized rats that were administered bleomycin (2 μL/g) via oropharyngeal instillation. For oropharyngeal instillation, anesthetized rats (isoflurane, 4% in 100% 02) were placed on a slanted board/tilting workstation and bleomycin was dripped onto the vocal cords, facilitating aspiration. Rats were then returned to their cages until they fully recovered from anesthesia and were monitored daily for the duration of the experiment. In this experiment, the [^18F]-labeled LPA1 antagonist, produced as described in the above Examples, was tested for its ability to discriminate between normal lung in wild type rats and increased lung LPA1 expression in the bleomycin rat disease model. The bleomycin treated rats were used at 14 and 15 days post bleomycin treatment. PET images were acquired at 14 days (baseline) and 15 days (blocking with a 10 mg/kg oral dose of an LPA1 antagonist administered 30 minutes before PET scan). Two groups of rats were used in the PET imaging study—aged matched wild type rats (Group 1, n=4) and bleomycin treated rats (Group 2, n=4). All animals received a baseline PET imaging scan and a repeat PET imaging scan following a single 10 mg/kg oral dose of an LPA1 antagonist. For PET image acquisition, rats were placed in an anesthetic induction chamber and 3% isoflurane inhalant anesthesia was delivered in 100% O2 at a rate of 1-1.5 L/min. Once sedated, the rats were removed from the induction chamber and placed into a plexiglass 2-chamber holder (custom-made by BMS-Applied Biotechnology group) within the gantry of the PET system (microPET® F220™, Siemens Preclinical Solutions, Knoxville, Tenn.) where they remained for the duration of the study. Anesthesia was maintained with 1-1.5% isoflurane inhalant anesthesia delivered in 100% 02 at a rate of 2 L/min via the nose-cone. Animals were kept warm using an external standalone temperature regulating unit (M2M Imaging Corp) to prevent hypothermia during imaging. Rat respiration was continuously monitored during imaging procedures and isoflurane was adjusted dependent on depth of anesthesia. A 10-minute transmission image was first acquired using a ^57Co point source for the purpose of attenuation correction of the final PET images and confirmation of lung localization for region of interest (ROI) analysis. The scanning region was located beginning at the neck area and extending toward the hind limbs of each animal in order to place the lungs within the 7.6 cm microPET system axial field of view (FOV). Upon completion of the transmission scan, each rat received administration of between 19.5-29.7 MBq (542-803 μCi) of [^18F]-(1S,3S)-3-(((6-(5-((((4-(fluoro)butyl)(methyl) carbamoyl)oxy)methyl)-1-methyl-1H-1,2,3-triazol-4-yl)-2-methylpyridin-3-yl)oxy)cyclohexane-1-carboxylic acid tracer via tail vein catheter followed by a 2 hour dynamic PET emission scan. For blocking studies, the same protocol was flowed 30 minutes after a 10 mg/kg oral dose of an LPA1 antagonist. Images were reconstructed using a maximum a posteriori (MAP) algorithm with attenuation correction using the collected transmission images and corrected for radioisotope decay. The PET images were then co-registered with corresponding transmission images using anatomical landmarks (air in lung) and boundaries of the animal holder. Images were analyzed by Inveon Research Workstation (Siemens Medical Solutions USA Inc., PA). Analysis for each rat was done with regions of interest (ROIs) drawn onto each whole lung and a section of the liver using the co-registered transmission images. […]

[2] = as above; set-up: species or system rat; details: Sprague Dawley, rat, lung, intravenous
Procedure: as §1

radio-metabolism, intact [1]: 80% | increase in the lung radioligand signal in disease induced model vs wild type animals (LPA1; bleomycin treated vs wild type rats, baseline, p<0.05): 46% | tissue uptake ([2]; bleomycin treated rats (Group 2, n=4), baseline, 60-90 minutes post injection, read-out: mean and standard error of radiotracer uptake in lung tissue): 0.116 %ID/g | tissue uptake ([2]; individual bleomycin treated rats (Group 2), baseline PET scan, 14 days post bleomycin, read-out: Lung uptake (% ID/g) @ 60-90 min): 0.116 %ID/g | tissue uptake ([2]; individual wild type rats (Group 1), baseline PET scan, read-out: Lung uptake (% ID/g) @ 60-90 min): 0.085 %ID/g | tissue uptake ([2]; wild type rats (Group 1, n=4), baseline, 60-90 minutes post injection, read-out: mean and standard error of radiotracer uptake in lung tissue): 0.08 %ID/g
SMILES: Cc1nc(-c2nnn(C)c2COC(=O)N(C)CCCC[18F])ccc1O[C@H]1CCC[C@H](C(=O)O)C1 [Example 16]
Lung uptake (% ID/g) @ 60-90 min (LPA1; individual bleomycin treated rats (Group 2), 14 days post bleomycin): 0.142 % ID/g and 0.118 % ID/g and 0.088 % ID/g | Lung uptake (% ID/g) @ 60-90 min (LPA1; individual wild type rats (Group 1)): 0.075 % ID/g and 0.063 % ID/g and 0.095 % ID/g
